The text below walks through data of ChEMBL document CHEMBL5291721, “A preclinical secondary pharmacology resource illuminates target-adverse drug reaction associations of marketed drugs” (Nat Commun, 2023).

Assay [1] addresses Beta-2 adrenergic receptor (Homo sapiens, UniProt P07550).
Assay [2] concerns the target Voltage-dependent L-type calcium channel subunit alpha-1C (Rattus norvegicus, UniProt P22002). The format is functional.
Assay [3] has as its target T1, Muscarinic acetylcholine receptor M2 (Homo sapiens, UniProt P08172).
T1 sequence (P08172 whole entry): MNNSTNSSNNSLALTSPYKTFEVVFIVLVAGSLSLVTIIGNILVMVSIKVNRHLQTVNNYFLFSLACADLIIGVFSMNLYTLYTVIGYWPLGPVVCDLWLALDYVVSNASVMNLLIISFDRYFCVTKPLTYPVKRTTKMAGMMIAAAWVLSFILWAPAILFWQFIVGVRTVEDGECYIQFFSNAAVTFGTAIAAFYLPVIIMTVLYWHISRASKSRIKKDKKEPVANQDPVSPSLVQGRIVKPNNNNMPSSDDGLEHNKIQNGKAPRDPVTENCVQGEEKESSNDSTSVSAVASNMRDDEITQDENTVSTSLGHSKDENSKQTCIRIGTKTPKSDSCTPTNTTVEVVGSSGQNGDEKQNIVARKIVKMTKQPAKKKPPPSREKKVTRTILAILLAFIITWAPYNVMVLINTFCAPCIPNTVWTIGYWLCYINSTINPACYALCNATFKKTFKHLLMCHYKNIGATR
It counts as functional, cell-based.

Assay [4] concerns the target Cannabinoid receptor 1 (Homo sapiens, UniProt P21554).
Assay [5] deals with T2, 5-hydroxytryptamine receptor 1A (Homo sapiens, UniProt P08908).
T2 sequence (P08908 whole entry): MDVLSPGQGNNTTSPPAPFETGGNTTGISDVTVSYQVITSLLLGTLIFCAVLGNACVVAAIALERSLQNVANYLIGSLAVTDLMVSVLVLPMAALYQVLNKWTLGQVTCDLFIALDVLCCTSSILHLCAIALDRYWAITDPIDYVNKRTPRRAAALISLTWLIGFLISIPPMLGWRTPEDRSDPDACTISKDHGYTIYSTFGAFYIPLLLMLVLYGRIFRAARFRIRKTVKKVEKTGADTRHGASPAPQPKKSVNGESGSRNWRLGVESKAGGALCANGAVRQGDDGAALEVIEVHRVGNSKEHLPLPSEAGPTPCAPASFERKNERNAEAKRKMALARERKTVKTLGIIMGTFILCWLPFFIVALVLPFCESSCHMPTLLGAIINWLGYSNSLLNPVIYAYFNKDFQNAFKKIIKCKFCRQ
The format is functional, cell-based.

Assay [6] concerns the target T3, Progesterone receptor (Homo sapiens, UniProt P06401).
T3 sequence (P06401 whole entry): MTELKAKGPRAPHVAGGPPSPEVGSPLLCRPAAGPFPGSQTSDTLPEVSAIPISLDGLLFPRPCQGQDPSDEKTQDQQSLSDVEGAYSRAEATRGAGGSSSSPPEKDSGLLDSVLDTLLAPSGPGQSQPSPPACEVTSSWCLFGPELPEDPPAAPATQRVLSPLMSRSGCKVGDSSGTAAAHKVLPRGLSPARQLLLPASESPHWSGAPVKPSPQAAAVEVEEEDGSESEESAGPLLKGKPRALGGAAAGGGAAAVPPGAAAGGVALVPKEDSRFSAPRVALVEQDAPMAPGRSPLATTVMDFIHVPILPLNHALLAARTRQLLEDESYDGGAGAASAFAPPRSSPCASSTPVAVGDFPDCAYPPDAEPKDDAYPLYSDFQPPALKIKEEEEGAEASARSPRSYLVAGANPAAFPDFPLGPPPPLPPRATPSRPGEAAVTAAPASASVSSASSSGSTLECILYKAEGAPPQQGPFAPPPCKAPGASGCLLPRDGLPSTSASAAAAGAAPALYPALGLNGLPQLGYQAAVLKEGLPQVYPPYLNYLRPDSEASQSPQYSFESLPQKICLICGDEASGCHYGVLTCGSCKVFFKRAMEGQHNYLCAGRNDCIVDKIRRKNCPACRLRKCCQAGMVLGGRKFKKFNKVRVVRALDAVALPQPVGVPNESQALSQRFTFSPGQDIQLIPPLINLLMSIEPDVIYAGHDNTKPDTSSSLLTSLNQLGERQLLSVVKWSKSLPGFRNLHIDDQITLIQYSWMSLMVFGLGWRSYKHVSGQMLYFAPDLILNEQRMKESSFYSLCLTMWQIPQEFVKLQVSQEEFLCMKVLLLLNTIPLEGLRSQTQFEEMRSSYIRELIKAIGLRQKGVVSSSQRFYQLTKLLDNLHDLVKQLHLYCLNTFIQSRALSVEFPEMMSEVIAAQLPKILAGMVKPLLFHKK
It counts as functional.

Where only a bound is given, the exact number is not on record here.
Also: assay procedure not described here.

Chain of Voltage-dependent L-type calcium channel subunit alpha-1C (P22002 whole entry): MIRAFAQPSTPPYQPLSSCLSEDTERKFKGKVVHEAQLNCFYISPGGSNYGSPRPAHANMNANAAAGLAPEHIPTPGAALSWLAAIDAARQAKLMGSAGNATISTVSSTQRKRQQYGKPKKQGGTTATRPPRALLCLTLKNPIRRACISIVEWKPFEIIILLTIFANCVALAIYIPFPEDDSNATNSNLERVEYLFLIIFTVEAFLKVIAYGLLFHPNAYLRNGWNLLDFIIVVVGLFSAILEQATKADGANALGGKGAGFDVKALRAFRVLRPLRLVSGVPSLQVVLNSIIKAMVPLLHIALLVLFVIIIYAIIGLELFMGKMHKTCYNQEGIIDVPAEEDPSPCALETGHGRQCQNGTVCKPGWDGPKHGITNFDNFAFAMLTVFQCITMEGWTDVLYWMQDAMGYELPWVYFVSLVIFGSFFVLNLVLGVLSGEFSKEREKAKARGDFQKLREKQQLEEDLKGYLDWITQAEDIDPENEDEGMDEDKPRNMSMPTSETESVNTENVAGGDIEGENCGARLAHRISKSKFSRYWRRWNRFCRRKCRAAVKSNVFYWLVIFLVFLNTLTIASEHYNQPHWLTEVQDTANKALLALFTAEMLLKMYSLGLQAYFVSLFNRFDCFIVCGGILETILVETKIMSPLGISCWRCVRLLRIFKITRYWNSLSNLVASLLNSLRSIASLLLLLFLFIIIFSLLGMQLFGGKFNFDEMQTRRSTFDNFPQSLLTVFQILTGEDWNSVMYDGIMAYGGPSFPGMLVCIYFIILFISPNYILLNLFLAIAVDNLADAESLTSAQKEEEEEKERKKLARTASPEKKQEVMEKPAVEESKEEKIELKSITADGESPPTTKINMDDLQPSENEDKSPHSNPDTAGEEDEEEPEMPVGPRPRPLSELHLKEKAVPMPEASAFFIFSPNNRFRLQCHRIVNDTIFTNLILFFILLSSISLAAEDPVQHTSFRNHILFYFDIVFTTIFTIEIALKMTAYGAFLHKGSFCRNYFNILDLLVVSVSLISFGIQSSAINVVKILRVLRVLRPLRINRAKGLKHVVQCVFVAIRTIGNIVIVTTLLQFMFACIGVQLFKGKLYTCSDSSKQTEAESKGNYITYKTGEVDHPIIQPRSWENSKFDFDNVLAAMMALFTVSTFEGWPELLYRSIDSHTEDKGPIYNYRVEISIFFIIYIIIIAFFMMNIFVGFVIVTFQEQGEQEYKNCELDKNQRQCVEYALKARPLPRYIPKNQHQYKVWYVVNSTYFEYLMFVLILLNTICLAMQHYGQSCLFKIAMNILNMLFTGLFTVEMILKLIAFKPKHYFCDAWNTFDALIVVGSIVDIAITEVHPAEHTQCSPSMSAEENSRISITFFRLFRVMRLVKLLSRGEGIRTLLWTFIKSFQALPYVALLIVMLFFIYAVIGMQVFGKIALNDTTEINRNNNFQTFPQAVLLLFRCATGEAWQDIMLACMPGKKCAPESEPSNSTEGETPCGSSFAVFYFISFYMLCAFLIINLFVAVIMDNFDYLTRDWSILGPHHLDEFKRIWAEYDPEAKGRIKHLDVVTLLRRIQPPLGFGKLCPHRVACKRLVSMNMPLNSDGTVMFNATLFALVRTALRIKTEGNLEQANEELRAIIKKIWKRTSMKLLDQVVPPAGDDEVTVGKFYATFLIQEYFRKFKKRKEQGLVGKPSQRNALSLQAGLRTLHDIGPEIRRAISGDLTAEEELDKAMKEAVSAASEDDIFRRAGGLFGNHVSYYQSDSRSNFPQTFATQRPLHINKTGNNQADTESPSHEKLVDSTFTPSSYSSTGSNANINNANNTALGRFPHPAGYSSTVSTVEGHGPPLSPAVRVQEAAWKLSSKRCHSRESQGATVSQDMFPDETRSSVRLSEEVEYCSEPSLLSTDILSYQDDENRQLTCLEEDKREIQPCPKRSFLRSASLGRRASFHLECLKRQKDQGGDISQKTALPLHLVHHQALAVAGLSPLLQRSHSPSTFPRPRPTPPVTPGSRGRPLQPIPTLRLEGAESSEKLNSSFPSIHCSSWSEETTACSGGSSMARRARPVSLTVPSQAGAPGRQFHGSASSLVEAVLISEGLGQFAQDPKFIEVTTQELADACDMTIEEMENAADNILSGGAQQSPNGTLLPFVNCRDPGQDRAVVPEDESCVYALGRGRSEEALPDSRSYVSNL
Chain of Cannabinoid receptor 1 (P21554 whole entry): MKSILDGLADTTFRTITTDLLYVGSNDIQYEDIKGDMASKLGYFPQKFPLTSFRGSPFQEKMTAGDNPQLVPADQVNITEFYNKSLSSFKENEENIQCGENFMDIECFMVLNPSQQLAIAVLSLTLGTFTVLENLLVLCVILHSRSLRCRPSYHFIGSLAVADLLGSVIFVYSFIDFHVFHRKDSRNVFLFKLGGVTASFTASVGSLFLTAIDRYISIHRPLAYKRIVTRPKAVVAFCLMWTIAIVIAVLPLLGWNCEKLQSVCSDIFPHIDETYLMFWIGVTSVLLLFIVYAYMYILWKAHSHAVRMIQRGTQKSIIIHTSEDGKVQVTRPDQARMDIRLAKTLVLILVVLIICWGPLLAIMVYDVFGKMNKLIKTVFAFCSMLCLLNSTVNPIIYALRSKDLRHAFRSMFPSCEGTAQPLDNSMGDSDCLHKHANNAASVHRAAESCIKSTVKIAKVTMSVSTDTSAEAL
Chain of Beta-2 adrenergic receptor (P07550 whole entry): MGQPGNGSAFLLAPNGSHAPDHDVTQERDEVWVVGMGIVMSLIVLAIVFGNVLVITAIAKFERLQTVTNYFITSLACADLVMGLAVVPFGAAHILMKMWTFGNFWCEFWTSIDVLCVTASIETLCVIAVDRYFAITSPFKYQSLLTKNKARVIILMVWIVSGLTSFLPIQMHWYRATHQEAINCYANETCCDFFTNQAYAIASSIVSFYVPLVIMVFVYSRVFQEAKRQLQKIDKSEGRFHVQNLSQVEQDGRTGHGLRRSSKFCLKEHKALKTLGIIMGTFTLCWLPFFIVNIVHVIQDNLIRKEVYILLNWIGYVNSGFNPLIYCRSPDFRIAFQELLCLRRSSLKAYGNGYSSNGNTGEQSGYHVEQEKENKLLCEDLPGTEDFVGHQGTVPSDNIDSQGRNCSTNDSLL

With `C=CCNc1nc(NCC=C)nc(N2CCN(C(c3ccc(F)cc3)c3ccc(F)cc3)CC2)n1` [ALMITRINE], the AC50 in assay [1], in assay [2], in assay [3], in assay [4], in assay [5] and in assay [6] was above 30 µM each time.
Take `CC(C)COCC(CN(Cc1ccccc1)c1ccccc1)N1CCCC1` (centres undefined) [BEPRIDIL]: the AC50 in assay [1] was above 30 µM; in assay [2], 24 µM; in assay [3] it was above 30 µM; in assay [4] it was 10 µM; in assay [5], above 10 µM; in assay [6], above 30 µM.
Take `CC1OC2(CS1)CN1CCC2CC1` (centres undefined) [CEVIMELINE]: the AC50 in assay [1], in assay [2], in assay [4], in assay [5] and in assay [6] was above 10 µM throughout.
Consider `CNC1=Nc2ccc(Cl)cc2C(c2ccccc2)=[N+]([O-])C1` [CHLORDIAZEPOXIDE], for which the concentration at half-maximal activity (AC50) in assay [1], in assay [2], in assay [3] and in assay [4] was above 10 µM in each case.
As to `Nc1ncn([C@H]2C[C@H](O)[C@@H](CO)O2)c(=O)n1` [DECITABINE], the concentration at half-maximal activity (AC50) in assay [2], in assay [3], in assay [4], in assay [5] and in assay [6] was above 30 µM in each case.
As to `CC(C)(C)C(=O)OCC(=O)[C@H]1CC[C@H]2[C@@H]3CCC4=CC(=O)CC[C@]4(C)[C@H]3CC[C@]12C` [DESOXYCORTICOSTERONE PIVALATE], the AC50 in assay [1] was above 10 µM; in assay [2], above 10 µM; in assay [3], above 10 µM; in assay [4], above 10 µM; in assay [6], 0.213 µM.
On to `CC(CCc1ccc(O)cc1)NCCc1ccc(O)c(O)c1` (centres undefined) [DOBUTAMINE], for which the half-maximal activity concentration (AC50) in assay [1] is 5.07 µM; in assay [2] it was above 30 µM; in assay [3], above 30 µM; in assay [4], above 30 µM; in assay [5] it was above 10 µM; in assay [6], above 30 µM.
With `CCOC(=O)c1cncn1[C@H](C)c1ccccc1` [ETOMIDATE], the AC50 in assay [1], in assay [2], in assay [3], in assay [4], in assay [5] and in assay [6] was above 10 µM each time.
On to `CCC1(c2ccccc2)CCC(=O)NC1=O` (centres undefined) [GLUTETHIMIDE], for which the half-maximal activity concentration (AC50) in assay [1] was above 10 µM; in assay [2] it was above 10 µM; in assay [3], above 10 µM; in assay [4] it was above 10 µM; in assay [5] it was above 30 µM; in assay [6], above 10 µM.
As for `CC(C)NCC(O)c1ccc(O)c(O)c1` (centres undefined) [ISOPROTERENOL], the AC50 in assay [2] is above 10 µM; in assay [3] it was above 10 µM; in assay [4] it was above 10 µM; in assay [5] it was above 10 µM; in assay [6] it was above 30 µM.
As to `C[C@H](Cc1ccc(O)c(O)c1)[C@@H](C)Cc1ccc(O)c(O)c1` [MASOPROCOL], the concentration at half-maximal activity (AC50) was above 10 µM in assay [1]; above 10 µM in assay [2]; above 30 µM in assay [3]; 23.9 µM in assay [4]; above 30 µM in assay [6].
`OC1(c2ccc(Cl)cc2)c2ccccc2C2=NCCN21` (centres undefined) [MAZINDOL]: the half-maximal activity concentration (AC50) in assay [1] was above 30 µM; in assay [2] it was above 10 µM; in assay [3], above 30 µM; in assay [4], above 10 µM; in assay [5] it was above 30 µM; in assay [6], above 30 µM.
Consider `CC12CC3CC(C)(C1)CC(N)(C3)C2` [MEMANTINE], for which the concentration at half-maximal activity (AC50) in assay [1], in assay [2], in assay [3], in assay [4] and in assay [5] was above 10 µM throughout.
Consider `CCOC(=O)C1=C(C)NC(C)=C(C(=O)OC)C1c1cccc([N+](=O)[O-])c1` (centres undefined) [NITRENDIPINE], for which the AC50 in assay [1] is above 10 µM; in assay [2] it was 0.0004 µM; in assay [3] it was above 10 µM; in assay [4] it was above 10 µM; in assay [5], above 10 µM.
`[H]/N=C(/N)N/C(=N/[H])NCCc1ccccc1` [PHENFORMIN]: the concentration at half-maximal activity (AC50) in assay [1] was above 10 µM; in assay [2] it was above 30 µM; in assay [3], above 10 µM; in assay [4], above 30 µM; in assay [5], above 30 µM.
With `CCCCC1C(=O)N(c2ccccc2)N(c2ccccc2)C1=O` [PHENYLBUTAZONE], the AC50 in assay [1], in assay [2], in assay [3], in assay [4], in assay [5] and in assay [6] was above 10 µM each time.
As to `CC(N)C(O)c1ccccc1` (centres undefined) [PHENYLPROPANOLAMINE], the AC50 in assay [1], in assay [2], in assay [3], in assay [4] and in assay [5] was above 10 µM in each case.
In the case of `Cc1noc(NS(=O)(=O)c2ccc(N)cc2)c1C` [SULFISOXAZOLE], the AC50 in assay [1], in assay [2], in assay [3], in assay [4] and in assay [6] was above 10 µM in each case.
With `CCC(=O)O[C@H]1CC[C@H]2[C@@H]3CCC4=CC(=O)CC[C@]4(C)[C@H]3CC[C@]12C` [TESTOSTERONE PROPIONATE], the half-maximal activity concentration (AC50) is above 10 µM in assay [1]; above 10 µM in assay [2]; above 10 µM in assay [3]; above 10 µM in assay [4]; above 10 µM in assay [5]; 0.328 µM in assay [6].
Turning to `Clc1ccc(C(Cn2ccnc2)OCc2ccsc2Cl)c(Cl)c1` (centres undefined) [TIOCONAZOLE], the AC50 in assay [1] is 10.6 µM; in assay [2], 23 µM; in assay [3], above 30 µM; in assay [4], above 30 µM; in assay [5], above 30 µM; in assay [6] it was above 30 µM.
For `Cc1cc2cc3c(C)cc(=O)oc3c(C)c2o1` [TRIOXSALEN], the concentration at half-maximal activity (AC50) is above 10 µM in assay [1]; above 10 µM in assay [2]; above 10 µM in assay [3]; above 10 µM in assay [4]; above 10 µM in assay [5]; above 30 µM in assay [6].
With `CC(C)[C@H](N)C(=O)OCC(CO)OCn1cnc2c(=O)nc(N)[nH]c21` (some centres undefined) [VALGANCICLOVIR], the AC50 in assay [1], in assay [2], in assay [3], in assay [4], in assay [5] and in assay [6] was above 30 µM in each case.
For `CCCC(CCC)C(N)=O` [VALPROMIDE], the concentration at half-maximal activity (AC50) in assay [1], in assay [2], in assay [3] and in assay [4] was above 10 µM in each case.
